Columns and labels:
[1] = Stability in human serum (HPLC of extracts); assay type: in vitro ADME; conditions: up to 24 h, ambient temperature or 37° C.
Protocol: (§1) Incubations: into a solution (1980 μL) of serum (mouse, human), buffer or cells media, a sample of (17a), (185-390 kBq) in 15-20 μL of 25% EtOH/PB (100 mM, pH 6.1) was added; the resulting mixture was briefly vortexed and kept (up to 24 h) at ambient temperature or inside the incubator (37° C./˜5% CO2). At each time point, a volume of 1 mL was withdrawn, the extract of sample prepared and analyzed by HPLC.
(§2) Preparation of extracts: a sample (1 mL) from each incubated mixture with compound (17a) was treated with MeCN (1 mL), vortexed, and centrifuged (2,000 rpm, 15 min). The supernatant was removed and the radioactivity measured. Aliquots of supernatant (250-500 μL) were acidified to pH˜6 with 0.05 N TFA (2-8 μL). The excess of MeCN was evaporated with a stream of nitrogen and water (100 μL) added. A mixture was passed through a 0.2μ filter and each sample (˜100 μL, 95-185 kBq) injected on HPLC system.
(§3) HPLC analysis of extracts: continued on Columbus C18 100 Å (5 μm, 4.6×250 mm) column; eluted at 0.8 mL/min with a linear gradient of MeCN from 0 to 95% over 60 min and 95% MeCN was kept for a period of further 20 min, detecting the radioactivity (Bioscan NaI(T)). Both solvents contained 0.07% TFA (v/v).

[2] = Stability in mouse serum (HPLC of extracts); assay type: in vitro ADME; conditions: up to 24 h, ambient temperature or 37° C.
Protocol: as §1, §2, §3

[3] = cited from earlier work
[4] = system: SK-N-SH cells; experiment: Uptake by SK-N-SH cells competed by MIBG; assay type: cell-based, human; conditions: competition with MIBG (FIG. 16)
[5] = system: SK-N-SH NB cells; experiment: Subcellular distribution of 125I in SK-N-SH NB cells; assay type: cell-based, human; conditions: SK-N-SH NB cells exposed at 80 kBq/mL for 1 h, harvested 24 h later
Description: (§4) Conjugate 17b was used for further testing. […] All drugs were designed so that they produce either 5-radioiodo-2′-deoxyuridine [RIUdR] or its 5′-monophosphate. Both metabolites can participate in the DNA synthesis allowing deposits of high LET radiation directly within the DNA structure. RIUdR, incorporated into the DNA of cancer cells in place of thymidine, is retained there for the life of the cell. It is extraordinarily lethal when labeled with Auger-electron-emitting radioiodines, which produce a cascade of monoenergetic electrons known as conversion and Auger electrons. These electrons deposit their energy within a tiny sphere around the decaying atom, i.e., the effective distance of Auger electrons is less than the diameter of the cancer cell nucleus. As a result, their cytotoxicity is dependent on the intranuclear localization, i.e., within the DNA or immediate vicinity of the DNA. Radiotoxicity of several reagents was tested in SK-N-SH cells. Tested drugs eradicate NB cells more efficiently than MIBG.

[6] = system: human NB SK-N-SH cells; experiment: Radiotoxicity, clonogenic assay in SK-N-SH cells; assay type: cell-based
Description: as §4
FIG. 14A-C show results of a pilot radiotoxicity study comparing the reproductive integrity of colonies of human NB SK-N-SH cells treated with conjugate 17b (radiolabeled with ^125I) and ^125IMIBG at 37 kBq/mL, two weeks after treatment.

## N=C(N)NCCC(=O)OC[C@H]1O[C@@H](n2cc([125I])c(=O)[nH]c2=O)C[C@@H]1O [17a, 5-[^125I]-Iodo-5′-O-propionylguanidino-2′-deoxyuridine]
[1]
  stability in human serum: limited
[2]
  stability in mouse serum: limited

## N=C(N)NCc1cccc([131I])c1 [^131IMIBG, ^131I-metaiodobenzylguanidine]
[3]; long-term survivors treated with 131IMIBG
  long-term survivors developing thyroid disorders: over 80%
[3]; patients with neuroblastoma
  maximum tolerated dose: > 600 MBq/kg

## N=C(N)NCCCCCC(=O)OC[C@H]1O[C@@H](n2cc([125I])c(=O)[nH]c2=O)C[C@@H]1O [conjugate 17b, 5-[^125I]-Iodo-5′-O-hexanoylguanidino-2′-deoxyuridine]
[4]
  uptake by SK-N-SH cells: competed by MIBG
[5]
  subcellular distribution of 125I: All ^125I is associated with the DNA fraction
[6]
  retention within the cell: trapped within the cell
[6]; 37 kBq/mL, two weeks after treatment, compared with 125IMIBG
  radiotoxicity (reproductive integrity of colonies): far more radiotoxic
[6]; 1 h with the drug, compared with 125IMIBG
  cells receiving a lethal dose of radiation, clonogenic assay: more cells receive a lethal dose of radiation
